From article PMC10517971, “An inverse agonist of orphan receptor GPR61 acts by a G protein-competitive allosteric mechanism” (Nature Communications, 2023)
pIC50: −log10 of the molar value.

Biological target: BRD4 (Homo sapiens, UniProt O60885)
Experiment: Bromodomain-Containing Protein 4 (BRD4) fluorescence polarization Binding Assay
Experimental: 45 37 °C for 30 min (DAT) or 60 min (NET and SER T). The plate is transferred to the FLIPR Tetra®
46 instrument and the fluorescence of each well was measured (Ex 470- 495 […]).
47 The level of fluores cenc e measured dire ctly relates to the level of uptake of the dye labelled amine,
48 with a reduction in levels being related to an inhibition of the respective transporter.
49 Phosphodiesterase Assays
50 The phosphodiesteras e (P DE) assays m easure the conversion of 3’, 5 ’ -[3H ] cAMP to 5’-[3H] AMP
51 (for PDE 3A1 and 4D3) or 3’, 5’-[3H] cGMP to 5’-[3H] GMP (for 5A1) by the relevant PDE
52 enzyme subtype. Yttrium silicate (YSi) scintillation proximity (SPA) beads bind selectively to 5’-
53 [3H] AMP or 5’-[3H] GMP, with the magnitude of radioactive counts being directly related to
54 PDE enzymatic activity. The ass ay was performed in white walled op aque b ottom 384-well plates.
55 Test compound (1 µL) in dimethyl sulfoxide was added to each well. Enzyme solution was then […]
60 Waltham, MA). Followin g an additional 8 h incubation period the plates were read on a MicroBeta […]
71 temperature fluorescence polarization measurements were made using an Envision plate reader […]
76 of the product color, measured at 405 nm, is proportionate to the enzyme activity in the sample. […]
81 read at the 20 min time point. […]

CCOc1cc(C)nc(N(CCOC)S(=O)(=O)c2ccc(NCc3c(F)cncc3F)nc2OC)n1 [Compound 1]
pIC50: < 4.60
